Reference: patent US20220305025A1, “PHOSPHATIDYLSERINE BINDING MOLECULES BLOCK IMMUNE SUPPRESSION OF TUMOR ASSOCIATED EXOSOMES” (priority 2019, published 2022)
“Also recorded” adds a separate entry of the source. Where two headings read alike, the source gives them in different places.

Tests used:
[1] = PS binding avidity
[2] = test system: DM6-Mut tumor xenografts; conditions: for tumor escape / tumor growth: NSG mice bearing DM6-Mut xenografts treated with TKT cells, ExoBlock 64 mg/kg i.p., nivolumab 10 mg/kg
Excerpt: (A) Experimental scheme and timeline (B-C) Tumor burdens on respective days in the X-mouse model in anti-PD-1 experiment (B) or the IL-12 experiment (C).
The X mouse model was established to allow for the rapid generation of human tumors and an in vivo method of evaluation of the anti-tumor responses of patient-derived T cells to patient tumor-specific peptides expressed by the established tumors.
There are 7 different T cells derived for 3 different patients available for our studies (Table 1). […] The melanoma tumor target cells (DM6) are either transduced with a tandem mini-gene expressing GFP or with luciferase and each are genetically modified to express either the mutated peptide (DM6-Mut), tumor target or the wild type peptide (DM6-WT) control target. Tumor growth in the X mouse model is monitored either by post-mortem quantification of GFP fluorescence in the omentum or by quantification of luciferase-dependent bioluminescence of the mice by live imaging.
The X-mouse model was used to test the efficacy of ExoBlock. ExoBlock was injected i.p. into NSG mice bearing DM6-Mut tumor xenografts and treated with TKT cells.

[3] = test system: DM6-Mut cells; experiment: Direct effect on tumor target cells in vitro; format: cell-based, human; conditions: at the doses used
[4] = test system: apoptotic cells (Jurkat cells); conditions: Jurkat cells treated with 10 μM Etoposide for 20 h; equimolar or titrating amounts
Procedure: Jurkat cells were treated with 10 μM Etoposide for 20 h to induce apoptosis. The cells were then stained with PSVue with equimolar or titrating molar amounts of ExoBlock. Sytox Red was used to eliminate dead cells from the analysis. The experiment was done in triplicate wells.

[5] = mouse, in vivo, 64 mg/kg
Excerpt: (§1) Mice were euthanized 14 days after treatment with the drugs.

[6] = Systemic organ toxicity study in mice; conditions: dose 64 mg/kg
Excerpt: as §1

[7] = test system: tumor associated exosomes / T cells; experiment: Reversal of exosome-mediated arrest of T cell activation (CD3/CD28-activated PBL with exosomes)
Procedure: PBL were either unactivated (Unt) or activated for 2 h (hours) with immobilized antibodies to CD3 and CD28 with exosomes (Exo), exosomes with Zn-T-DPA and Exoblock (Exo+Zn-T-DPA and Exo+ExoBlock) or without (No Exo) exosomes. NFκB expression was detected using confocal microscopy.
T cells from normal donor peripheral blood leukocytes (NDPBL) were activated for 2 h with immobilized antibodies to CD3 and CD28 in the presence or absence of exosomes and 10 μM ExoBlock. The percentage of activation was determined by monitoring the upregulation of CD69. Percentage of inhibition and reversal were calculated.

Substance | avidity of PS binding [1] | tumor escape / tumor growth [2] | change in tumor burden ([2]; day 25, 64 mg/kg i.p.) | interference with anti-tumor responses of tumor-specific T cells ([2]; mouse model) | toxicities in pre-clinical efficacy studies ([2]; mouse model) | direct killing / suppression of tumor target cells [3] | competitive inhibition of PSVue 499 binding [4] | histopathology of organs [5] | systemic organ toxicity (NOAEL) [6] | batch consistency of reversal of immunosuppressive effect of exosomes ([7]; 10 μM ExoBlock, CD69 upregulation, NDPBL T cells) | blocking exosomal immune suppression in vitro ([7]; PBL activated 2 h with immobilized antibodies to CD3 and CD28 with exosomes) | reversal of the exosome-mediated arrest of T cell function ([7]; comparative studies, FIG. 2A-C) | tumor escape / tumor growth ([2]; listed as anti-PD-1)
(ZnDPA)6-DP-15K [ExoBlock] | bind PS with a high avidity; also recorded: greater avidity to PS as compared to Zn-T-DPA | significantly delayed tumor escape; also recorded: suppresses tumor growth and has comparable efficacy to anti-PD1 treatment | two-fold change in tumor burden | does not interfere with the anti-tumor responses of the tumor-specific T cells | no detectable toxicities | does not directly kill the tumor target cells; also recorded: no direct suppressive effect | competitively inhibits binding of PSVue 499 to apoptotic cells in a dose-dependent manner | No pathology was observed | NOAEL was observed | consistent in their ability to reverse immunosuppressive effect of exosomes | more effective than both anti-PS antibody and annexin V; also recorded: inhibits exosome-mediated arrest of T cell activation | 75-96% | –
nivolumab [reference compound] | – | enhanced the tumor suppression and delayed, but did not prevent tumor recurrence | – | – | – | – | – | – | – | – | – | – | delay tumor escape
